Measurements reported in patent US20050287203A1, “Formulation comprising testosteron undecanoate and castor oil” (priority 2002, published 2005).

Test: concentration of TU attainable in castor oil solution
Format: physicochemical
Details: liquid carrier castor oil
Description: The choice of castor oil as the liquid carrier, in conjunction with the choice of testosterone undecanoate as the androgen, makes for a solution which can comprise about 200-250 mg of TU per ml. This amounts to approximately […] of testosterone per ml. This is a novel achievement for any orally administerable solution of testosterone in any form. The invention, in one aspect, therefore includes a pharmaceutical formulation in the form of a capsule for oral administration comprising testosterone undecanoate as the active ingredient dissolved in a pharmaceutically acceptable liquid carrier in a concentration of 200-250 mg/ml.

Question: For CCCCCCCCCCC(=O)O[C@H]1CC[C@H]2[C@@H]3CCC4=CC(=O)CC[C@]4(C)[C@H]3CC[C@]12C [testosterone undecanoate], which “amount of TU the solution in castor oil can comprise” value is on record?
Answer: The value was 200-250 mg of TU per ml.
